Reference: patent US20040241244A1, “Neuronal growth enhancement by prostaglandin compositions and methods” (NexMed (Holdings) Inc., priority 2003, published 2004)
Values joined by “and” are separate entries in the source; they are usually repeats but may differ in a detail not shown here. Identical values can stand only once. Like-named read-outs stand apart in the source and are kept apart here.

Assays:
EP2 receptor = EP2 receptor (Mus musculus, UniProt Q62053); conditions: read-out: affinity for the EP2 receptor; cited from earlier work
EP2 receptor, sequence (Q62053 whole entry): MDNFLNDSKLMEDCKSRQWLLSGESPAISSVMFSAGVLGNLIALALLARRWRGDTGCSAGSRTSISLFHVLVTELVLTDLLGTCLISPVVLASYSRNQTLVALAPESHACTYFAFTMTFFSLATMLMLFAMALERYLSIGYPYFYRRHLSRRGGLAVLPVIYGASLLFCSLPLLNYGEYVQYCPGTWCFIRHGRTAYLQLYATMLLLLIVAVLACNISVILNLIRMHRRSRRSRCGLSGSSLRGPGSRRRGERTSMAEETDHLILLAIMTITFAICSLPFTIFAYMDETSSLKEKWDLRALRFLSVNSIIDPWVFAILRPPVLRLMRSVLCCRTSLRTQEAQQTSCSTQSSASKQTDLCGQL

[1] = test system: mouse neuroblastoma cells; conditions: cited from earlier work
[2] = test system: cultured mouse dorsal root ganglion neurons; conditions: 20 micromolar, at 2 hours; cited from earlier work
[3] = test system: dorsocaudal regions of rat major pelvic ganglia (DCR-MPG); assay: Neurite outgrowth in primary cultures of dorsocaudal regions of rat major pelvic ganglia; format: cell-based, Sprague-Dawley rats
Description: The dorsocaudal regions of 24 major pelvic ganglia (DCR-MPG) were dissected from Sprague-Dawley rats. Each sample was placed on a reduced-growth factor Matrigel coated glasscover slide in a culture dish filled with serum-free medium. […] The ganglia cultures were incubated at 37° C. in a humidified atmosphere with 5% CO2. Digital photographs were taken of neurite growth after 96 hours.
Growth Factor Reduced Matrigel (Passaniti, A., et al., Lab. Invest. 1992 67:518-528) was purchased from Becton Dickinson (Mountain View, Calif.). Cell culture grade PGE1 was purchased from Sigma Chemical. (St. Louis, Mo.). RPIM-1640 and other cell culture reagents were purchased from GIBCO Invitrogen Corp. (Grand Island, N.Y.).
Male Sprague-Dawley rats, two-months old, were used in this study. All animal care, treatments, and procedures were approved by the institutional Committee on Animal Research. The rats were sacrificed by intraperitoneal injection of sodium pentobarbital (50 mg/kg) followed by bilateral thoracotomy and the removal of the dorsocaudal region of the major pelvic ganglia (DCR-MPG).
Each rat supplied a pair of DCR-MPG; one was used as control and the contralateral ganglion was treated with PGE1. The DCR-MPG isolated from Sprague-Dawley rats were cultured attached to Matrigel-coated glass coverslips. The coverslips were used as the supporting platform to facilitate samples processing for histological staining and examination. Coverslips were coated as follows. Growth Factor Reduced Matrigel (Becton Dickinson, Mountain View, Calif.) was diluted 3-fold in serum-free RPMI-1640 in a 35-mm culture dish on ice. The diluted Matrigel was then spread onto cold sterilized glass coverslips using a sterilized glass slide as spreader. The coated coverslips were placed in 35-mm culture dishes and incubated at 37° C. for 1 hr to allow the Matrigel to solidify. Each freshly dissected DCR-MPG was rinsed in phosphate-buffered saline (PBS), cut into equal thirds, placed on top of Matrigel coated coverslips and covered by 50 μl cold Growth Factor Reduced Matrigel which had been kept in liquid form. After a 5-min incubation at 37° C. to allow the Matrigel to polymerize, 3 ml of serum-free RPMI 1640 medium supplemented with 1×penicillin-streptomycin-fungizone (Cell Culture Facility, University of California, San Francisco) was added. […] The ganglia cultures were maintained at 37° C. in a humidified atmosphere with 5% CO2.
After 2 to 3 days of incubation, the ganglia and outgrowing neurites were stained for nicotinamide adenine dinucleotide phosphate (NADPH) diaphorase as an indication of nitric oxide synthase (NOS) expression. The culture medium was removed from each culture and replaced with a fixative solution of 2% formaldehyde, 0.002% picric acid in 0.1 M phosphate buffer, pH 8.0. After 20 min of fixation, the tissue was rinsed three times, 10 min each, with phosphate buffer, pH 8.0. The tissue was then incubated with 0.1 mM NADPH, 0.2 mM nitroblue tetrazolium, 0.2% Triton X-100 in buffer for approximately 30 min at room temperature with constant microscopic monitoring for color development. When a deep blue color was detected for NADPH-diaphorase positive nerves, the reaction was terminated by washing the tissues with buffer three times, 10 min each. The coverslips containing the ganglia were then mounted onto glass slides using buffered glycerin as mounting medium.
Neurites were photographed using a professional DCS-420 digital camera (Eastman Kodak, Rochester, N.Y.) connected to an Olympus microscope and an Apple Macintosh PowerMac computer. All samples were photographed and the images were stored for later analysis. The digital images were analyzed using Chemilmager 4000 software (Alpha Innotech Corporation, San Leandro, Calif.) to determine the maximum length of the outgrowing neurites fibers.
Statistical analysis was performed using computer software from Primer of Biostatistics, 3rd ed. (Glantz SA, McGraw-Hill, Inc. New York, 1992). […]

[4] = test system: mouse neuroblastoma cells; assay: Neurite extension in neuroblastoma cells in culture (Prasad, 1972); format: cell-based; conditions: converted from micrograms/ml
Source text: “Neurite” is a broad term used to describe both axons and dendrites produced by a nerve cell; most commonly used to cover all cellular processes produced by neurons in culture (Kendrew, J., editor, The Encyclopedia of Molecular Biology, Blackwell Science Ltd., Oxford, 1994, page 709).

[5] = test system: patients after nerve sparing RRP; conditions: three months of intracavernous injections three times a week; patients completing treatment; cited from earlier work

For `CCCCC[C@H](O)/C=C/[C@H]1[C@H](O)CC(=O)[C@@H]1C/C=C\CCCC(=O)O` [PGE2, Prostaglandin E2], the Kd (EP2 receptor) is given as ~10 nM, the “optimum concentration for neurite extension” value (“optimum concentration” for short) [1] is given as “same optimum concentration” and the neurite extension [2] is given as “significantly different from control”.
With Prostaglandin E1 [PGE1] the “Neurite Growth (Length of longest neurite), Mean” value ([3]; 1 μM PGE1, 96 hours culture) was 168.00 μm, the “Neurite Growth (Length of longest neurite), Mean” value ([3]; 10 μM PGE1, 96 hours culture) was 229.33±10.7 μm and 229.33 μm and the “Neurite Growth (Length of longest neurite), Mean” value ([3]; 20 μM PGE1, 96 hours culture) was 244.00 μm. For the same compound, the fiber length induced ([3]; 30 μM PGE1) was 250 ± 38.1 µm, the “peak neurite growth (mean ± standard deviation)” value ([3]; 30 μM PGE1) was 250±63 micrometers and the “Neurite Growth (Length of longest neurite), Mean” value ([3]; 30 μM PGE1, 96 hours culture) was 250.29 μm. For the same compound, the “Neurite Growth (Length of longest neurite), Mean” value ([3]; 60 μM PGE1, 96 hours culture) was 138.00 μm, the “maximum neurite extension at high doses” value ([3]; 60 μM, 100 μM) was “smaller maximum neurite extension” and the “Neurite Growth (Length of longest neurite), Mean” value ([3]; 100 μM PGE1, 96 hours culture) was 112.00 μm. The “effect on neurite outgrowth of NADPH positive cells” value ([3]; primary cultures, 1-100 μM) was “enhance neurite outgrowth”, the “PGE1 concentration at which the maximum effect on neurite outgrowth was observed” value ([3]; tested at 1, 10, 20, 30, 60 or 100 μM) was 30 µM and the “optimum concentration” value [4] was “about 30 micromolar”. For the same compound, the “optimum concentration” value [1] was “about 10 micrograms/ml”, the “optimum time of exposure” value [1] was 3 to 5 days and the “patients reporting recovery of spontaneous erections sufficient for intercourse” value [5] was 8 of the 12.
